Assay results as given in ChEMBL document CHEMBL4145553, “Design, synthesis, and biological evaluation of novel amide and hydrazide based thioether analogs targeting Histone deacteylase (HDAC) enzymes” (Eur J Med Chem, 2018).

Columns and labels:
RPMI-8226 = experiment: Growth inhibition of human RPMI8226 cells assessed as cell growth at 10^-8 M incubated for 48 hrs by sulforhodamine B assay relative to control; type: functional; details: RPMI-8226, 48 h, read-out: Activity
KM12 = experiment: Growth inhibition of human KM12 cells assessed as cell growth at 10^-7 M incubated for 48 hrs by sulforhodamine B assay relative to control; type: functional; details: KM12, 48 h, read-out: Activity
DU-145 [1] = experiment: Growth inhibition of human DU145 cells assessed as cell growth at 10^-4 M incubated for 48 hrs by sulforhodamine B assay relative to control; type: functional; details: DU-145, 48 h, read-out: Activity
HOP-62 = experiment: Growth inhibition of human HOP62 cells incubated for 48 hrs by sulforhodamine B assay; type: functional; details: HOP-62, 48 h
TK-10 [2] = experiment: Growth inhibition of human TK10 cells incubated for 48 hrs by sulforhodamine B assay; type: functional; details: TK-10, 48 h
HL-60(TB) = experiment: Growth inhibition of human HL-60(TB) cells at 10 uM incubated for 48 hrs by sulforhodamine B assay relative to control; type: functional; details: HL-60, 48 h, values are per cent of control
NCI-H226 = experiment: Growth inhibition of human NCI-H226 cells at 10 uM incubated for 48 hrs by sulforhodamine B assay relative to control; type: functional; details: NCI-H226, 48 h, values are per cent of control
NCI-H23 = experiment: Growth inhibition of human NCI-H23 cells at 10 uM incubated for 48 hrs by sulforhodamine B assay relative to control; type: functional; details: NCI-H23, 48 h, values are per cent of control
NCI-H322M = experiment: Growth inhibition of human NCI-H322M cells at 10 uM incubated for 48 hrs by sulforhodamine B assay relative to control; type: functional; details: values are per cent of control
NCI-H460 = experiment: Growth inhibition of human NCI-H460 cells at 10 uM incubated for 48 hrs by sulforhodamine B assay relative to control; type: functional; details: NCI-H460, 48 h, values are per cent of control
TK-10 [3] = experiment: Growth inhibition of human TK10 cells at 10 uM incubated for 48 hrs by sulforhodamine B assay relative to control; type: functional; details: TK-10, 48 h, values are per cent of control
CAKI-1 = experiment: Growth inhibition of human Caki1 cells at 10 uM incubated for 48 hrs by sulforhodamine B assay relative to control; type: functional; details: CAKI-1, 48 h, values are per cent of control
ACHN = experiment: Growth inhibition of human ACHN cells at 10 uM incubated for 48 hrs by sulforhodamine B assay relative to control; type: functional; details: values are per cent of control
786-0 = experiment: Growth inhibition of human 786-0 cells at 10 uM incubated for 48 hrs by sulforhodamine B assay relative to control; type: functional; details: 786-0, 48 h, values are per cent of control
SK-OV-3 = experiment: Growth inhibition of human SKOV3 cells at 10 uM incubated for 48 hrs by sulforhodamine B assay relative to control; type: functional; details: SK-OV-3, 48 h, values are per cent of control
PC-3 = experiment: Growth inhibition of human PC3 cells at 10 uM incubated for 48 hrs by sulforhodamine B assay relative to control; type: functional; details: PC-3, 48 h, values are per cent of control
DU-145 [4] = experiment: Growth inhibition of human DU145 cells at 10 uM incubated for 48 hrs by sulforhodamine B assay relative to control; type: functional; details: DU-145, 48 h, values are per cent of control
Hs-578T = experiment: Growth inhibition of human Hs 578T cells at 10 uM incubated for 48 hrs by sulforhodamine B assay relative to control; type: functional; details: values are per cent of control
MDA-MB-468 = experiment: Growth inhibition of human MDA-MB-468 cells at 10 uM incubated for 48 hrs by sulforhodamine B assay relative to control; type: functional; details: MDA-MB-468, 48 h, values are per cent of control
SR = experiment: Growth of human SR cells at 10 uM incubated for 48 hrs by sulforhodamine B assay relative to control
EKVX = experiment: Growth of human EKVX cells at 10 uM incubated for 48 hrs by sulforhodamine B assay relative to control
SF-539 = experiment: Growth of human SF539 cells at 10 uM incubated for 48 hrs by sulforhodamine B assay relative to control; details: SF-539, 48 h
SW-620 = experiment: Growth of human SW620 cells at 10 uM incubated for 48 hrs by sulforhodamine B assay relative to control; details: SW-620, 48 h
HCT-15 = experiment: Growth of human HCT15 cells at 10 uM incubated for 48 hrs by sulforhodamine B assay relative to control; details: HCT-15, 48 h
MOLT-4 = experiment: Growth of human MOLT4 cells at 10 uM incubated for 48 hrs by sulforhodamine B assay relative to control; details: MOLT-4, 48 h
OVCAR-8 = experiment: Growth of human OVCAR8 cells at 10 uM incubated for 48 hrs by sulforhodamine B assay relative to control; details: OVCAR-8, 48 h
OVCAR-3 = experiment: Growth of human OVCAR3 cells at 10 uM incubated for 48 hrs by sulforhodamine B assay relative to control; details: OVCAR-3, 48 h
HCC 2998 = experiment: Growth of human HCC2998 cells at 10 uM incubated for 48 hrs by sulforhodamine B assay relative to control; details: HCC 2998, 48 h
SK-MEL-2 = experiment: Growth of human SK-MEL-2 cells at 10 uM incubated for 48 hrs by sulforhodamine B assay relative to control; details: SK-MEL-2, 48 h
NCI-H522 = experiment: Growth of human NCI-H522 cells at 10 uM incubated for 48 hrs by sulforhodamine B assay relative to control; details: NCI-H522, 48 h
CCRF-CEM = experiment: Growth of human CCRF-CEM cells at 10 uM incubated for 48 hrs by sulforhodamine B assay relative to control
MDA-MB-435 = experiment: Growth of human MDA-MB-435 cells at 10 uM incubated for 48 hrs by sulforhodamine B assay relative to control; details: MDA-MB-435, 48 h
[5] = read-out: LC50 (the source's name)
[6] = read-out: pLC50 (the source's name) (converted)

CCS/C(Nc1ccccc1)=C(\C#N)C(=O)Nc1ccc(OC)cc1
growth at 0.01 µM (RPMI-8226): 94% | growth at 0.1 µM (KM12): 98% | growth at 100 µM (DU-145 [1]): -6% | GI50 (HOP-62; read-out: GI50): 5.62 µM | CC50 (HOP-62; [5]): > 100 µM | TGI (HOP-62; read-out: TGI): > 100 µM | GI50 (HOP-62; read-out: pGI50 (converted)): 5.62 µM | CC50 (HOP-62; [6]): > 100 µM | TGI (HOP-62; read-out: pTGI): > 100 µM | GI50 (TK-10 [2]; read-out: GI50): 24.3 µM | CC50 (TK-10 [2]; [5]): > 100 µM | TGI (TK-10 [2]; read-out: TGI): > 100 µM | GI50 (TK-10 [2]; read-out: pGI50 (converted)): 24.5 µM | CC50 (TK-10 [2]; [6]): > 100 µM | TGI (TK-10 [2]; read-out: pTGI): > 100 µM | growth, % of control at 10 µM (HL-60(TB)): -15.6% | growth, % of control at 10 µM (NCI-H226): 57.9% | growth, % of control at 10 µM (NCI-H23): 48.3% | growth, % of control at 10 µM (NCI-H322M): 51.6% | growth, % of control at 10 µM (NCI-H460): 10.1% | growth, % of control at 10 µM (TK-10 [3]): 47.6% | growth, % of control at 10 µM (CAKI-1): 40.4% | growth, % of control at 10 µM (ACHN): 51.9% | growth, % of control at 10 µM (786-0): 39.5% | growth, % of control at 10 µM (SK-OV-3): 22.4% | growth, % of control at 10 µM (PC-3): 47.9% | growth, % of control at 10 µM (DU-145 [4]): 33.8% | growth, % of control at 10 µM (Hs-578T): 27.4% | growth, % of control at 10 µM (MDA-MB-468): -2.63% | growth, % of control at 10 µM (SR): 6.62% | growth, % of control at 10 µM (EKVX): 52.4% | growth, % of control at 10 µM (SF-539): 29.1% | growth, % of control at 10 µM (SW-620): 17.9% | growth, % of control at 10 µM (HCT-15): 16.9% | growth, % of control at 10 µM (MOLT-4): 10.1% | growth, % of control at 10 µM (OVCAR-8): 31.2% | growth, % of control at 10 µM (OVCAR-3): -12.1% | growth, % of control at 10 µM (HCC 2998): 55.2% | growth, % of control at 10 µM (SK-MEL-2): -0.34% | growth, % of control at 10 µM (NCI-H522): 0.63% | growth, % of control at 10 µM (CCRF-CEM): 8.29% | growth, % of control at 10 µM (MDA-MB-435): -47.9%

CCS/C(Nc1ccccc1)=C(\C#N)C(=O)N/N=C\c1ccc(Cl)cc1Cl
growth at 0.01 µM (RPMI-8226): 101% | growth at 0.1 µM (KM12): 101% | growth at 100 µM (DU-145 [1]): 8% | GI50 (HOP-62; read-out: GI50): 3.66 µM | CC50 (HOP-62; [5]): > 100 µM | TGI (HOP-62; read-out: TGI): > 100 µM | GI50 (HOP-62; read-out: pGI50 (converted)): 3.63 µM | CC50 (HOP-62; [6]): > 100 µM | TGI (HOP-62; read-out: pTGI): > 100 µM | GI50 (TK-10 [2]; read-out: GI50): 10.2 µM | CC50 (TK-10 [2]; [5]): > 100 µM | TGI (TK-10 [2]; read-out: TGI): > 100 µM | GI50 (TK-10 [2]; read-out: pGI50 (converted)): 10.2 µM | CC50 (TK-10 [2]; [6]): > 100 µM | TGI (TK-10 [2]; read-out: pTGI): > 100 µM | growth, % of control at 10 µM (HL-60(TB)): -31.4% | growth, % of control at 10 µM (NCI-H226): 37.7% | growth, % of control at 10 µM (NCI-H23): 41.3% | growth, % of control at 10 µM (NCI-H322M): 70.9% | growth, % of control at 10 µM (NCI-H460): 8.05% | growth, % of control at 10 µM (TK-10 [3]): 56.7% | growth, % of control at 10 µM (CAKI-1): 31.5% | growth, % of control at 10 µM (ACHN): 38.2% | growth, % of control at 10 µM (786-0): 31.8% | growth, % of control at 10 µM (SK-OV-3): 15.5% | growth, % of control at 10 µM (PC-3): 31.5% | growth, % of control at 10 µM (DU-145 [4]): 20% | growth, % of control at 10 µM (Hs-578T): -6.44% | growth, % of control at 10 µM (MDA-MB-468): 19.6% | growth, % of control at 10 µM (SR): 19.5% | growth, % of control at 10 µM (EKVX): 47.4% | growth, % of control at 10 µM (SF-539): 4.25% | growth, % of control at 10 µM (SW-620): 18.6% | growth, % of control at 10 µM (HCT-15): 19.9% | growth, % of control at 10 µM (MOLT-4): 18.3% | growth, % of control at 10 µM (OVCAR-8): 28.6% | growth, % of control at 10 µM (OVCAR-3): 1.46% | growth, % of control at 10 µM (HCC 2998): 48.4% | growth, % of control at 10 µM (SK-MEL-2): 28.3% | growth, % of control at 10 µM (NCI-H522): 1.02% | growth, % of control at 10 µM (CCRF-CEM): 9.86% | growth, % of control at 10 µM (MDA-MB-435): -34.5%

CCS/C(Nc1ccccc1)=C(\C#N)C(=O)Nc1ccc(C)cc1
growth, % of control at 10 µM (HL-60(TB)): 45.9% | growth, % of control at 10 µM (NCI-H226): 95% | growth, % of control at 10 µM (NCI-H23): 94% | growth, % of control at 10 µM (NCI-H322M): 96.6% | growth, % of control at 10 µM (NCI-H460): 98.8% | growth, % of control at 10 µM (TK-10 [3]): 81.7% | growth, % of control at 10 µM (CAKI-1): 86.8% | growth, % of control at 10 µM (ACHN): 96.8% | growth, % of control at 10 µM (786-0): 87.1% | growth, % of control at 10 µM (SK-OV-3): 101% | growth, % of control at 10 µM (PC-3): 97% | growth, % of control at 10 µM (DU-145 [4]): 95.2% | growth, % of control at 10 µM (Hs-578T): 98.9% | growth, % of control at 10 µM (MDA-MB-468): 103% | growth, % of control at 10 µM (SR): 64.2% | growth, % of control at 10 µM (EKVX): 97.4% | growth, % of control at 10 µM (SF-539): 98.2% | growth, % of control at 10 µM (SW-620): 101% | growth, % of control at 10 µM (HCT-15): 94.8% | growth, % of control at 10 µM (MOLT-4): 56.6% | growth, % of control at 10 µM (OVCAR-8): 96% | growth, % of control at 10 µM (OVCAR-3): 97.9% | growth, % of control at 10 µM (HCC 2998): 94.8% | growth, % of control at 10 µM (SK-MEL-2): 85.3% | growth, % of control at 10 µM (NCI-H522): 71.2% | growth, % of control at 10 µM (CCRF-CEM): 85.8% | growth, % of control at 10 µM (MDA-MB-435): 102%
